Results on five molecules are retold here after patent US12501899B2, “Mite infestation treatment” (priority 2019, dated 2025).

One data set deals with Varroa destructor. On the procedure: About 300 bees (Apis mellifera) infected with Varroa destructor were taken from a hive superinfected with Varroa destructor. The bees were then placed in a device allowing to detach Varroa mites attached to the bees (device described in Community model n° 003419415-0001) filled with icing sugar. The device was stirred for 2 minutes to sample the Varroa mites attached to the bees. The icing sugar allows to interfere between the bee and the Varroa mite that was attached thereto. Varroa mites were harvested with icing sugar because they pass through the holes in the device, unlike bees. The Varroa mites were then separated from the icing sugar.
The Varroa mites thus recovered were dispatched in boxes (10 Varroa mites per box).
(§1) The bees were then dispatched in the boxes (10 per box).
(§2) The bees were then put to sleep for a few minutes using CO2 (flow of 3 liters for 20 seconds) in order to deposit 1 μL of compound to be tested on their thorax using a pipette. It should be noted that the bees which received romifidine hydrochloride at a concentration of 10 μg/μL received 2 μL of product. The bees were unconscious for the time the compound to be tested was deposited, that is to say around three minutes, then they woke up.
(§3) After thoracic deposition of the compound to be tested, the 10 bees from the same box were transferred to a box containing the 10 Varroa mites (cf. “Preparation of Varroa mites” above). Liquid sugar was left in each of the boxes to feed the bees during the observations. The series of boxes was then placed in an oven at […] with a humidity of 50% in order to approximate hive conditions as closely as possible.
(§4) The mortality of Varroa mites and bees was then monitored 5 minutes, 2 hours, 4 hours and 24 hours after application of the compound to be tested to the bees. Dead Varroa mites correspond to Varroa mites detached from the bees. Dead bees correspond to bees which no longer move and which are often placed on their thorax.
(§5) The following compositions were applied to the thorax of the bees: • Solvent, • Amitraz at 1 μg/μL in acetone, • Clonidine hydrochloride at 100 μg/μL, 10 μg/μL, 1 μg/μL and 0.1 μg/μL in methanol, • Detomidine hydrochloride monohydrate at 1 μg/μL in methanol, • Dexmedetomidine hydrochloride at 100 μg/μL, 10 μg/μL, 1 μg/μL and 0.1 μg/μL in methanol, • Romifidine hydrochloride at 10 μg/μL and at 5 μg/μL in methanol, • Tizanidine hydrochloride at 1 μg/μL in methanol, • Medetomidine hydrochloride at 0.1 μg/μL in ethanol, • Levomedetomidine hydrochloride at 100 μg/μL, 10 μg/μL, 1 μg/μL and 0.1 μg/μL in methanol, • Octopamine at 1 μg/μL in ethanol. Results

The next data set relates to bees (Apis mellifera). The note with it: for bees killed / bee mortality / bees killed: 1 μL on bee thorax; for bees killed / bee mortality: time not stated (monitored up to 24 hours); for mortality / toxicity for the bees: after 24 hours. On the procedure: as §1, §2, §3, §4, §5

Structures can show the parent of a compound that is named as a salt. Where two headings read alike, the source gives them in different places.

As to `NCC(O)c1ccc(O)cc1` (stereo not drawn) [Octopamine], the “Varroacid effect (in words)” value with Varroa destructor (1 μg/μL in ethanol) is “No Varroacid effect”. Also, the “bees killed / bee mortality” value with bees (Apis mellifera) (1 μg/μL) is reported as “zero”.

Turning to `Clc1cccc(Cl)c1NC1=NCCN1` [Clonidine hydrochloride, N-(2,6-dichlorophenyl)-4,5-dihydro-1H-imidazol-2-amine], the “kinetics of the Varroacid effect (in words)” value in the data set on Varroa destructor (full efficiency after 24 hours) is reported as “rather slow compared to the positive control”. Moreover, the “bees killed / bee mortality” value in the data set with bees (Apis mellifera) (1 μg/μL) is given as “zero mortality”. Besides, the bees killed in the data set with bees (Apis mellifera) (10 μg/μL) and with bees (Apis mellifera) (100 μg/μL) was 10% each time.

Regarding `Cc1cccc(Cc2cnc[nH]2)c1C` [Detomidine hydrochloride monohydrate, 4-[(2,3-dimethylphenyl)-methyl]-3H-imidazole], in the data set on Varroa destructor (1 μg/μL, after 2 hours), the Varroa mites killed is given as 40%. In addition, the “Varroa mites killed / Varroa mite mortality” value in the data set with Varroa destructor (1 μg/μL, after 24 hours) worked out at 100%. Also, the “mortality for the bees” value with bees (Apis mellifera) (1 μg/μL, after 2 hours) is “without mortality”. Moreover, the “mortality / toxicity for the bees” value in the data set on bees (Apis mellifera) (1 μg/μL) is on record as “without mortality”.

Regarding `Fc1cccc(Br)c1NC1=NCCN1` [Romifidine hydrochloride, N-(2-bromo-6-fluorophenyl)-4,5-dihydro-1H-imidazol-2-amine], the “mortality of Varroa mites” value is on record as “same level of mortality” in the data set on Varroa destructor (5 μg/μL, 24 hours, compared with 10 μg/μL at 4 hours); 75% in the data set with Varroa destructor (2 μl of product at 10 μg/μL, after 2 hours); 95% in the data set with Varroa destructor (2 μl of product at 10 μg/μL, after 4 hours). In the data set with bees (Apis mellifera) (all doses (10 and 5 μg/μL), even after 24 hours), the Bee mortality result was “zero”.

For `Clc1ccc2nsnc2c1NC1=NCCN1` [Tizanidine hydrochloride, 4-Chloro-N-(4,5-dihydro-1H-imidazol-2-yl)-8-thia-7,9-diazabicyclo, nona-2,4,6,9-tetraen-5-amine], the “mortality / toxicity for the bees” value in the data set with bees (Apis mellifera) (1 μg/μL) was “without toxicity”.
